Series [1] relates to streptozotocin-induced diabetic rats. The series is described as follows: Electroretinography after topical ocular treatment in diabetic rats. Further details: implicit time of the b-wave at 0 db compared to pretreatment: unit not given beside the values. The following applies: for difference between the amplitude of the second OP (OP2) of the b-wave at 0 db / implicit time of the b-wave at 0 db compared to pretreatment: STZ 60 mg/kg rats; for difference between the amplitude of the second OP (OP2) of the b-wave at 0 db: FIG. 2; for implicit time of the b-wave at 0 db compared to pretreatment: after 14 days of treatment; for b-wave amplitude at −10 db and 0 db / b-wave amplitude at −30 db: compared to the diabetic group. Type of series: in vivo, Sprague Dawley rats. The method, then:
(§1) Streptozotocin (STZ), 60 mg/Kg, was administered to Sprague Dawley rats. The animals were divided in four groups as detailed in Table 1:
(§2) Two days after STZ was administered, animals were treated daily with one or two drops of vehicle (Group 2), eye drops of example 4 (Group 3) or eye drops of example 5 (Group 4) for additionally 14 days. Healthy control animals were only treated daily with one or two drops of vehicle (Group 1).
Electroretinography is a technique used clinically to evaluate retinal function in diabetic retinopathy. Several parameters can be affected in early stages of the disease: implicit time, amplitude and oscillatory potentials [Tzekov et al., Survey of Ophthalmology, 1999, 44(1): 53-60]. The increment of the implicit time and diminishment of amplitude of the oscillatory potentials (OPs) are also observed in streptozotocin-induced diabetic rats [Hancok et al., Investigative Ophthalmology & Visual Science, 2004, 45(3): 1002-1008].

Series [2] concerns Glial Fibrillar Protein (GFAP). Kind of series: Glial activation by GFAP immunofluorescence (confocal microscopy) in retina of diabetic rats. Type of series: in vivo, Sprague Dawley rats. The following applies: for glial cell activation (GFAP expression, confocal images): day 14, ganglion cell layer, FIG. 3; for GFAP fluorescence value: day 14, normalized to the analysed area (21705.33 μm^2), diabetic Group 2 6871±159, healthy Group 1 2095±26. Here is the method: as §1, §2
(§3) On day 14, the animals were sacrificed and ocular tissues paraffined. Glial activation and number of apoptotic cells were evaluated as markers of the first step in the development of diabetic retinopathy: retinal neurodegeneration [Carrasco et al., Diabetes Care; 2007, 30(11): 1-7].
Glial activation was determined analysing Glial Fibrillar Protein (GFAP) immunofluorescence by confocal microscopy. Ocular sections of 7 μm thickness were fixed on high adherent coverslips (Visionbiosystems, Newcastle Upon Tyne, UK). They were desparaffined, rehydrated and washed in phosphate buffer saline (PBS). Unspecific unions were blocked incubating the samples for 1 h in PBS 1% BSA (Bovine Serum Albumin) 0.5% Triton X-100. Thereafter, the primary rabbit anti-human GFAP antibody (Sigma, Madrid, Spain) diluted in the blocking buffer (1:100) was incubated for 36 h at 4° C. After three washings for 5 min with PBS, sections were incubated with a secondary antibody anti […] labelled with Alexa Fluor® 488 (Invitrogen, Eugene, Oreg.) for 1 h at room temperature. Labelled sections were washed and mounted with fluorescent medium containing 4,6-diamidino-2-phenylindole (DAPI) for staining cell nuclei (Vector Laboratories, Burlingame, Calif.). The sections positives for GFAP were captured in a confocal microscope (FV1000, Olympus. Hamburg, Germany) obtaining optical sections with a 488 nm laser for Alexa 488 and a 405 nm laser for DAPI. GFAP fluorescence was quantified in each image with the Fluoview ASW 1.4 software (Olympus, Hamburg, Germany). Results were normalized to the analysed area (21705.33 μm^2).

In series [3] the test system is retinal cells of streptozotocin-induced diabetic rats. The series is described as follows: Degree of apoptosis of the retina by TUNEL in diabetic rats. It counts as in vivo, Sprague Dawley rats. The following applies: for retinal degeneration (TUNEL positive cells, confocal images): after 14 days of treatment, FIG. 4; for % Apoptotic cells GCL: ganglion cell layer; for % Apoptotic cells GCL / % Apoptotic cells INL / % Apoptotic cells ONL / % Apoptotic cells RPE: 14 days of treatment; for % Apoptotic cells INL: inner nuclear layer; for % Apoptotic cells ONL: outer nuclear layer; for % Apoptotic cells RPE: retinal pigment epithelium. The method, then: as §1, §2, §3
The evaluation of the degree of apoptosis of the retina after 14 days of treatment was done by using the TUNEL (“Terminal Transferase dUTP Nick-End Labeling”) technique. The In Situ Cell Death Detection Kit (Roche Diagnostics, Mannheim, Germany) was used. Ocular sections were desparaffined, rehydrated and washed in PBS. Three confocal images (40×) corresponding to a 317.13 μm×317.13 μm surface were obtained for each section. The total number of nuclei and nuclei positive for TUNEL were quantified with the Image J software (http://rsbweb.nih.gov/ij). Staining with propidium iodide (PI) was done for examining the nucleus morphology and discard false positives. […] Retinal degeneration correlated with a higher number of apoptotic cells (brightest labeling means TUNEL positive) observed in streptozotocin-induced diabetic rats (Group 2).
The increment in the percentage of apoptotic cells is significant in diabetic rats (Group 2). Topical ocular treatment with somatostatin (Group 3) or octreotide (Group 4) reduced the number of apoptotic cells till control levels (Group 1).

The nature of series [4]: Evaluation of the concentration of topical ophthalmic somatostatin in the retina (Western blot). It counts as in vivo, C57BL/6 mice. The following applies: eye drops of example 1, 1 drop of 5 μL twice a day for 5 days in right eye vs placebo in left eye; 2 hours after last dosage; Western blot densitometry. The method, then: Eight-week old C57BL/6 mice were used. The handling and care of the animals was carried out following the Institut de Recerca del Hospital Universitari Vall d'Hebron protocol and the European Economic Community and A.R.V.O. (Association for Research in Vision and Opthalmology) international guidelines (order 86/609/CEE). The animals were kept in individual cages in the animal facilities at a controlled temperature (20°) and humidity (60%), under constant cycles of light-darkness which last 12 hours and had free access to food and drink. The eye drops of somatostatin-14 from example 1 (1 drop of 5 μL) were administered to the right eye and the placebo (saline solution) to the left eye. Two drops were administered per day, one in the morning and another in the evening, for 5 days. The animals were euthanized by cervical dislocation under anesthetic 2 hours after the last dosage. Immediately afterwards the eyeballs were extracted and were frozen at −80° until handling. […] The quantity of somatostatin-14 in the retina was determined by Western blot. […] A densitometric analysis was carried out (Densitometer GS-800. Bio-Rad. Laboratories, Hercules, Calif., USA) and the results are expressed as arbitrary units. […] On control mice, who received the placebo in both eyes, no differences were detected in the concentration of somatostatin between both eyes.
On the technique in general: Immunoblotting shows a protein as a band on a membrane.

Data on two compounds can be found in patent publication US9216208B2, “Topical ophthalmic peptide formulation” (BCN Peptides, S.A., priority 2009, dated 2015).

For the compound `C[C@@H](O)[C@@H]1NC(=O)[C@H](CCCCN)NC(=O)[C@@H](Cc2c[nH]c3ccccc23)NC(=O)[C@H](Cc2ccccc2)NC(=O)[C@@H](NC(=O)[C@H](N)Cc2ccccc2)CSSC[C@@H](C(=O)N[C@H](CO)[C@@H](C)O)NC1=O` [octreotide], in series [1] (Left eye (2 drops per day)), the “difference between the amplitude of the second OP (OP2) of the b-wave at 0 db” value (shortened to “difference between the amplitude”) is given as 55.1 and the “implicit time of the b-wave at 0 db compared to pretreatment” value (from here on “implicit time … compared to pretreatment”) came to 1.1. Further, in series [1] (Right eye (1 drop per day)), the “difference between the amplitude” value worked out at 45.5 and the “implicit time … compared to pretreatment” value is given as 8.8. Moreover, in series [1], the “b-wave amplitude at −10 db and 0 db” value is on record as “effective only at the highest dose”; the “b-wave amplitude at −30 db” value was “prevented the diminishment”. Further, in series [2], the “glial cell activation (GFAP expression, confocal images)” value is reported as “prevented glial cell activation” and the GFAP fluorescence value turned out to be 1696±48. For the same compound, in series [3], the “retinal degeneration (TUNEL positive cells, confocal images)” value was “prevented retinal degeneration”; the “% Apoptotic cells GCL” value was 7%; the “% Apoptotic cells INL” value worked out at 0.1%; the “% Apoptotic cells ONL” value is 5%. In addition, the “% Apoptotic cells RPE” value in series [3] worked out at 11%.

`C[C@H](N)C(=O)NCC(=O)N[C@H]1CSSC[C@@H](C(=O)O)NC(=O)[C@H](CO)NC(=O)[C@H]([C@@H](C)O)NC(=O)[C@H](Cc2ccccc2)NC(=O)[C@H]([C@@H](C)O)NC(=O)[C@H](CCCCN)NC(=O)[C@H](Cc2c[nH]c3ccccc23)NC(=O)[C@H](Cc2ccccc2)NC(=O)[C@H](Cc2ccccc2)NC(=O)[C@H](CC(N)=O)NC(=O)[C@H](CCCCN)NC1=O` [somatostatin, somatostatin-14]: in series [4], the “amount of somatostatin in the retina” value was “greater in the treated eye on both animals”. In addition, in series [1] (Left eye (2 drops per day)), the “difference between the amplitude” value amounted to 68.7 and the “implicit time … compared to pretreatment” value worked out at 4.9. In series [1] (Right eye (1 drop per day)), the “difference between the amplitude” value is given as 44.8 and the “implicit time … compared to pretreatment” value came out at 9.0. Also, in series [1], the “b-wave amplitude at −10 db and 0 db” value is recorded as “prevented the diminishment”; the “b-wave amplitude at −30 db” value is listed as “prevented the diminishment”. Moreover, in series [2], the “glial cell activation (GFAP expression, confocal images)” value is “prevented glial cell activation” and the GFAP fluorescence value came to 2514±90. In series [3], the “retinal degeneration (TUNEL positive cells, confocal images)” value is listed as “prevented retinal degeneration”; the “% Apoptotic cells GCL” value stood at 14%; the “% Apoptotic cells INL” value worked out at 1%; the “% Apoptotic cells ONL” value worked out at 3%. Besides, the “% Apoptotic cells RPE” value in series [3] is listed as 6%.
